{
  "source": "PubChem BioAssay AID1259409",
  "about": "(Chemical Carcinogenesis Research Information System (CCRIS), 2018)",
  "origin": "cited, not measured here",
  "test_system": "rodent chemically induced tumor inhibition, incidence and multiplicity",
  "experiment": "CCRIS tumor inhibitor studies",
  "data": [
    {"smiles": "COc1cc([C@@H]2Oc3cc([C@H]4Oc5cc(O)cc(O)c5C(=O)[C@@H]4O)ccc3O[C@H]2CO)ccc1O", "values": [
      {"measurement": "tumour outcome (control, treated, inhibition, significance)", "setting": "Carcinogen: 1,2-DIMETHYLHYDRAZINE, 540-73-8, Dose [Inhibitor]: 0, 0.1% IN DIET FOR 32 WK BEGINNING AT 24 D OF AGE (STUDY DURATION: 32 WK), Route [Inhibitor]: ORAL, Species: RAT, Strain/Sex: SPRAGUE-DAWLEY/MALE, Target Tissue: Type of Lesion: COLON: ADENOCARCINOMA, Dose [Carcinogen]: 20 MG/KG 1/WK FOR 15 WK BEGINNING ON D 37, Promoter: NONE USED", "value": "19/22 (86%), 11/16 (69%), 20%, not calculated"},
      {"measurement": "tumour outcome (control, treated, inhibition, significance)", "setting": "Carcinogen: 1,2-DIMETHYLHYDRAZINE, 540-73-8, Dose [Inhibitor]: 0, 0.1% IN DIET FOR 32 WK BEGINNING AT 24 D OF AGE (STUDY DURATION: 32 WK), Route [Inhibitor]: ORAL, Species: RAT, Strain/Sex: SPRAGUE-DAWLEY/MALE, Target Tissue: Type of Lesion: SMALL INTESTINE: ADENOCARCINOMA, Dose [Carcinogen]: 20 MG/KG 1/WK FOR 15 WK BEGINNING ON D 37, Promoter: NONE USED", "value": "18/22 (82%), 9/16 (56%), 32%, not calculated"},
      {"measurement": "tumour outcome (control, treated, inhibition, significance)", "setting": "Carcinogen: N-BUTYL-N-(4-HYDROXYBUTYL)NITROSAMINE, 3817-11-6, Dose [Inhibitor]: 0, 1000 PPM IN DIET FOR 8 WK (STUDY DURATION: 32 WK), Route [Inhibitor]: ORAL, Species: MOUSE, Strain/Sex: ICR/MALE, Target Tissue: Type of Lesion: URINARY BLADDER: PAPILLOMA, Dose [Carcinogen]: 500 PPM IN DRINKING WATER FOR 6 WK BEGINNING 1 WK AFTER FIRST INHIBITOR DOSE, Promoter: NONE USED", "value": "2/44 (5%), 1/34 (3%), 40%, not significant"},
      {"measurement": "tumour outcome (control, treated, inhibition, significance)", "setting": "Carcinogen: N-BUTYL-N-(4-HYDROXYBUTYL)NITROSAMINE, 3817-11-6, Dose [Inhibitor]: 0, 1000 PPM IN DIET FOR 8 WK (STUDY DURATION: 32 WK), Route [Inhibitor]: ORAL, Species: MOUSE, Strain/Sex: ICR/MALE, Target Tissue: Type of Lesion: URINARY BLADDER: TRANSITIONAL CELL CARCINOMA, Dose [Carcinogen]: 500 PPM IN DRINKING WATER FOR 6 WK BEGINNING 1 WK AFTER FIRST INHIBITOR DOSE, Promoter: NONE USED", "value": "17/44 (39%), 4/34 (12%), 69%, p< 0.01"},
      {"measurement": "outcome", "setting": "Carcinogen: N-BUTYL-N-(4-HYDROXYBUTYL)NITROSAMINE, 3817-11-6, Dose [Inhibitor]: 0, 1000 PPM IN DIET FOR 24 WK BEGINNING 1 WK POST FINAL CARCINOGEN DOSE (STUDY DURATION: 32 WK), Route [Inhibitor]: ORAL, Species: MOUSE, Strain/Sex: ICR/MALE, Target Tissue: Type of Lesion: URINARY BLADDER: PAPILLOMA, Dose [Carcinogen]: 500 PPM IN DRINKING WATER FOR 6 WK BEGINNING 1 WK AFTER FIRST INHIBITOR DOSE, Promoter: NONE USED", "value": "2/44 (5), 5/30 (17%), -240%, not significant"},
      {"measurement": "tumour outcome (control, treated, inhibition, significance)", "setting": "Carcinogen: N-BUTYL-N-(4-HYDROXYBUTYL)NITROSAMINE, 3817-11-6, Dose [Inhibitor]: 0, 1000 PPM IN DIET FOR 24 WK BEGINNING 1 WK POST FINAL CARCINOGEN DOSE (STUDY DURATION: 32 WK), Route [Inhibitor]: ORAL, Species: MOUSE, Strain/Sex: ICR/MALE, Target Tissue: Type of Lesion: URINARY BLADDER: TRANSITIONAL CELL CARCINOMA, Dose [Carcinogen]: 500 PPM IN DRINKING WATER FOR 6 WK BEGINNING 1 WK AFTER FIRST INHIBITOR DOSE, Promoter: NONE USED", "value": "17/44 (39%), 5/30 (17%), 56%, p< 0.05"},
      {"measurement": "outcome", "setting": "Carcinogen: N-Butyl-N-(4-hydroxybutyl)nitrosamine, 3817-11-6, Dose [Inhibitor]: 200 mg/kg bw 1 wk before carcinogen, dose duration 51 wk, study duration 56 wk, Route [Inhibitor]: Oral (gavage) 5 d/wk, Species: Mouse, Strain/Sex: ICR/Male, Target Tissue: Type of Lesion: Urinary Bladder: carcinoma, Dose [Carcinogen]: 0, 0.5% in drinking water for 6 wk, Promoter: None", "value": "52%, 7.7%, p=0.001"}
    ]},
    {"smiles": "CC(C)(C)c1cc(-c2cc(C(C)(C)C)c(O)c(C(C)(C)C)c2)cc(C(C)(C)C)c1O", "values": [
      {"measurement": "tumour outcome (control, treated, inhibition, significance)", "setting": "Carcinogen: BENZO[A]PYRENE, 50-32-8, Dose [Inhibitor]: 0.03 MMOL/G OF DIET DAILY STARTING 7 D BEFORE AND CONTINUING THROUGH 3 D AFTER CARCINOGEN TREATMENT FOLLOWED BY OBSERVAT, Route [Inhibitor]: ORAL, Species: MOUSE, Strain/Sex: ICR/FEMALE, Target Tissue: Type of Lesion: FORESTOMACH: NEOPLASM, Dose [Carcinogen]: 1 MG IN 0.2 ML CORN OIL 2/WK FOR 4 WK, Promoter: NONE USED", "value": "90%, 89%, 1%, not significant"}
    ]},
    {"smiles": "O/N=C/Cc1c[nH]c2ccccc12", "values": [
      {"measurement": "tumour outcome (control, treated, inhibition, significance)", "setting": "Carcinogen: 7,12-DIMETHYLBENZ[A]ANTHRACENE, 57-97-6, Dose [Inhibitor]: 0.1 MMOL IN 1 ML DIMETHYL SULFOXIDE ONCE 20 HR PRIOR TO CARCINOGEN ADMINISTRATION FOLLOWED BY A 14 WK OBSERVATION PERIOD, Route [Inhibitor]: GAVAGE, Species: RAT, Strain/Sex: SPRAGUE-DAWLEY/FEMALE, Target Tissue: Type of Lesion: MAMMARY GLAND: TUMOR, Dose [Carcinogen]: 12 MG IN 1 ML OLIVE OIL ONCE, Promoter: NONE USED", "value": "64%, 19%, 70%, p<0.05"}
    ]},
    {"smiles": "O=C(O)[C@H](O)[C@@H](O)[C@H](O)[C@H](O)CO", "values": [
      {"measurement": "tumour outcome (control, treated, inhibition, significance)", "setting": "Carcinogen: 1,2-DIMETHYLHYDRAZINE DIHYDROCHLORIDE, 306-37-6, Dose [Inhibitor]: 0, 1% IN DIET FOR 8 MO BEGINNING 2 WK POST CARCINOGEN (STUDY DURATION: 8 MO, 2 WK), Route [Inhibitor]: ORAL, Species: RAT, Strain/Sex: F344/MALE, Target Tissue: Type of Lesion: COLON: TUMOR, Dose [Carcinogen]: 200 MG/KG IN 0.9% NACL ONCE", "value": "15/27 (56%), 17/28 (61%), -9%, not significant"},
      {"measurement": "tumour outcome (control, treated, inhibition, significance)", "setting": "Carcinogen: 1,2-DIMETHYLHYDRAZINE DIHYDROCHLORIDE, 306-37-6, Dose [Inhibitor]: 0, 2% IN DIET FOR 8 MO BEGINNING 2 WK POST CARCINOGEN (STUDY DURATION: 8 MO, 2 WK), Route [Inhibitor]: ORAL, Species: RAT, Strain/Sex: F344/MALE, Target Tissue: Type of Lesion: COLON: TUMOR, Dose [Carcinogen]: 200 MG/KG IN 0.9% NACL ONCE", "value": "15/27 (56%), 7/17 (41%), 27%, not significant"}
    ]}
  ]
}
